Measurements published in publication PMC8037182, “Solvothermal Synthesis of Multiple Dihydropyrimidinones at a Time as Inhibitors of Eg5” (Molecules, 2021).
pIC50: −log10 of the molar value.

Columns and labels:
Caco-2 cell line = assay: Cytotoxicity MTS assay, Caco-2 cell line; format: cell-based; settings: for OD490 Mean / OD490 Well 1 / OD490 Well 2 / OD490 Well 3: Caco-2 cell line
Procedure, shortened: (§1)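 IC50 reflects non-linear regression of percent cell viability on compound concentration, tested from 0.5 to 100 µM final during a 24 h exposure. Viability was read by MTS at 490 nm; monastrol served as positive control and 0.025% DMSO as blank.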

Hela cell line = assay: Cytotoxicity MTS assay, Hela cell line; format: cell-based; settings: for OD490 value, Mean / OD490 value, Well 1 / OD490 value, Well 2 / OD490 value, Well 3: Hela cell line, MTS;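 for OD490 value, Mean: blank control wells received 0.025% DMSO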;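 for OD490 value, Well 1: blank control wells received 0.025% DMSO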;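 for OD490 value, Well 2: blank control wells received 0.025% DMSO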;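 for OD490 value, Well 3: blank control wells received 0.025% DMSO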
Procedure, shortened: as §1

Compound: CCOC(=O)c1[nH]c(C2NC(=O)NC(C)=C2C(=O)Nc2ccccc2OC)c(C(=O)OC)c1C (centres unmarked) [D3]
- OD490 Mean (Caco-2 cell line; 0.5μM, first assay): 0.6387
- OD490 Well 1 (Caco-2 cell line; 0.5μM, first assay): 0.6262
- OD490 Well 2 (Caco-2 cell line; 0.5μM, first assay): 0.6384
- OD490 Well 3 (Caco-2 cell line; 0.5μM, first assay): 0.6515
- OD490 Mean (Caco-2 cell line; 0.5μM, second assay): 0.7146
- OD490 Well 1 (Caco-2 cell line; 0.5μM, second assay): 0.7283
- OD490 Well 2 (Caco-2 cell line; 0.5μM, second assay): 0.7863
- OD490 Well 3 (Caco-2 cell line; 0.5μM, second assay): 0.6291
- OD490 Mean (Caco-2 cell line; 0.5μM, third assay): 0.6707
- OD490 Well 1 (Caco-2 cell line; 0.5μM, third assay): 0.6256
- OD490 Well 2 (Caco-2 cell line; 0.5μM, third assay): 0.6879
- OD490 Well 3 (Caco-2 cell line; 0.5μM, third assay): 0.6985
- OD490 Mean (Caco-2 cell line; 1μM, first assay): 0.6598
- OD490 Well 1 (Caco-2 cell line; 1μM, first assay): 0.6405
- OD490 Well 2 (Caco-2 cell line; 1μM, first assay): 0.6612
- OD490 Well 3 (Caco-2 cell line; 1μM, first assay): 0.6777
- OD490 Mean (Caco-2 cell line; 1μM, second assay): 0.6524
- OD490 Well 1 (Caco-2 cell line; 1μM, second assay): 0.6596
- OD490 Well 2 (Caco-2 cell line; 1μM, second assay): 0.7226
- OD490 Well 3 (Caco-2 cell line; 1μM, second assay): 0.5749
- OD490 Mean (Caco-2 cell line; 1μM, third assay): 0.7014
- OD490 Well 1 (Caco-2 cell line; 1μM, third assay): 0.6954
- OD490 Well 2 (Caco-2 cell line; 1μM, third assay): 0.6888
- OD490 Well 3 (Caco-2 cell line; 1μM, third assay): 0.7201
- OD490 Mean (Caco-2 cell line; 10μM, first assay): 0.6769
- OD490 Well 1 (Caco-2 cell line; 10μM, first assay): 0.6754
- OD490 Well 2 (Caco-2 cell line; 10μM, first assay): 0.6571
- OD490 Well 3 (Caco-2 cell line; 10μM, first assay): 0.6982
- OD490 Mean (Caco-2 cell line; 10μM, second assay): 0.7108
- OD490 Well 1 (Caco-2 cell line; 10μM, second assay): 0.7146
- OD490 Well 2 (Caco-2 cell line; 10μM, second assay): 0.7063
- OD490 Well 3 (Caco-2 cell line; 10μM, second assay): 0.7114
- OD490 Mean (Caco-2 cell line; 10μM, third assay): 0.7093
- OD490 Well 1 (Caco-2 cell line; 10μM, third assay): 0.6912
- OD490 Well 2 (Caco-2 cell line; 10μM, third assay): 0.7365
- OD490 Well 3 (Caco-2 cell line; 10μM, third assay): 0.7003
- OD490 Mean (Caco-2 cell line; 25μM, first assay): 0.6846
- OD490 Well 1 (Caco-2 cell line; 25μM, first assay): 0.6410
- OD490 Well 2 (Caco-2 cell line; 25μM, first assay): 0.7249
- OD490 Well 3 (Caco-2 cell line; 25μM, first assay): 0.6880
- OD490 Mean (Caco-2 cell line; 25μM, second assay): 0.6529
- OD490 Well 1 (Caco-2 cell line; 25μM, second assay): 0.662
- OD490 Well 2 (Caco-2 cell line; 25μM, second assay): 0.6871
- OD490 Well 3 (Caco-2 cell line; 25μM, second assay): 0.6097
- OD490 Mean (Caco-2 cell line; 25μM, third assay): 0.6888
- OD490 Well 1 (Caco-2 cell line; 25μM, third assay): 0.6989
- OD490 Well 2 (Caco-2 cell line; 25μM, third assay): 0.6784
- OD490 Well 3 (Caco-2 cell line; 25μM, third assay): 0.6891
- OD490 Mean (Caco-2 cell line; 50μM, first assay): 0.7773
- OD490 Well 1 (Caco-2 cell line; 50μM, first assay): 0.7708
- OD490 Well 2 (Caco-2 cell line; 50μM, first assay): 0.7874
- OD490 Well 3 (Caco-2 cell line; 50μM, first assay): 0.7736
- OD490 Mean (Caco-2 cell line; 50μM, second assay): 0.7093
- OD490 Well 1 (Caco-2 cell line; 50μM, second assay): 0.7521
- OD490 Well 2 (Caco-2 cell line; 50μM, second assay): 0.7258
- OD490 Well 3 (Caco-2 cell line; 50μM, second assay): 0.6501
- OD490 Mean (Caco-2 cell line; 50μM, third assay): 0.7169
- OD490 Well 1 (Caco-2 cell line; 50μM, third assay): 0.6532
- OD490 Well 2 (Caco-2 cell line; 50μM, third assay): 0.7354
- OD490 Well 3 (Caco-2 cell line; 50μM, third assay): 0.7621
- OD490 Mean (Caco-2 cell line; 100μM, first assay): 0.5588
- OD490 Well 1 (Caco-2 cell line; 100μM, first assay): 0.5950
- OD490 Well 2 (Caco-2 cell line; 100μM, first assay): 0.5357
- OD490 Well 3 (Caco-2 cell line; 100μM, first assay): 0.5456
- OD490 Mean (Caco-2 cell line; 100μM, second assay): 0.7013
- OD490 Well 1 (Caco-2 cell line; 100μM, second assay): 0.7196
- OD490 Well 2 (Caco-2 cell line; 100μM, second assay): 0.6757
- OD490 Well 3 (Caco-2 cell line; 100μM, second assay): 0.7086
- OD490 Mean (Caco-2 cell line; 100μM, third assay): 0.7231
- OD490 Well 1 (Caco-2 cell line; 100μM, third assay): 0.7561
- OD490 Well 2 (Caco-2 cell line; 100μM, third assay): 0.7145
- OD490 Well 3 (Caco-2 cell line; 100μM, third assay): 0.6987
- pIC50 (Caco-2 cell line; MTS assay, 24 h exposure): < 3.82
- OD490 value, Mean (Hela cell line; 0.5μM, first assay): 2.7753
- OD490 value, Well 1 (Hela cell line; 0.5μM, first assay): 2.9485
- OD490 value, Well 2 (Hela cell line; 0.5μM, first assay): 2.6032
- OD490 value, Well 3 (Hela cell line; 0.5μM, first assay): 2.7743
- OD490 value, Mean (Hela cell line; 0.5μM, second assay): 2.7117
- OD490 value, Well 1 (Hela cell line; 0.5μM, second assay): 2.7664
- OD490 value, Well 2 (Hela cell line; 0.5μM, second assay): 2.9230
- OD490 value, Well 3 (Hela cell line; 0.5μM, second assay): 2.4458
- OD490 value, Mean (Hela cell line; 0.5μM, third assay): 2.8303
- OD490 value, Well 1 (Hela cell line; 0.5μM, third assay): 2.8863
- OD490 value, Well 2 (Hela cell line; 0.5μM, third assay): 2.8745
- OD490 value, Well 3 (Hela cell line; 0.5μM, third assay): 2.7301
- OD490 value, Mean (Hela cell line; 1μM, first assay): 2.5355
- OD490 value, Well 1 (Hela cell line; 1μM, first assay): 2.6242
- OD490 value, Well 2 (Hela cell line; 1μM, first assay): 2.5242
- OD490 value, Well 3 (Hela cell line; 1μM, first assay): 2.4580
- OD490 value, Mean (Hela cell line; 1μM, second assay): 2.6019
- OD490 value, Well 1 (Hela cell line; 1μM, second assay): 2.7530
- OD490 value, Well 2 (Hela cell line; 1μM, second assay): 2.3014
- OD490 value, Well 3 (Hela cell line; 1μM, second assay): 2.7514
- OD490 value, Mean (Hela cell line; 1μM, third assay): 2.6769
- OD490 value, Well 1 (Hela cell line; 1μM, third assay): 2.6365
- OD490 value, Well 2 (Hela cell line; 1μM, third assay): 2.7412
- OD490 value, Well 3 (Hela cell line; 1μM, third assay): 2.6531
- OD490 value, Mean (Hela cell line; 10μM, first assay): 2.6047
- OD490 value, Well 1 (Hela cell line; 10μM, first assay): 2.6883
- OD490 value, Well 2 (Hela cell line; 10μM, first assay): 2.6311
- OD490 value, Well 3 (Hela cell line; 10μM, first assay): 2.4948
- OD490 value, Mean (Hela cell line; 10μM, second assay): 2.6182
- OD490 value, Well 1 (Hela cell line; 10μM, second assay): 2.7032
- OD490 value, Well 2 (Hela cell line; 10μM, second assay): 2.6012
- OD490 value, Well 3 (Hela cell line; 10μM, second assay): 2.5503
- OD490 value, Mean (Hela cell line; 10μM, third assay): 2.6419
- OD490 value, Well 1 (Hela cell line; 10μM, third assay): 2.7745
- OD490 value, Well 2 (Hela cell line; 10μM, third assay): 2.6563
- OD490 value, Well 3 (Hela cell line; 10μM, third assay): 2.4949
- OD490 value, Mean (Hela cell line; 25μM, first assay): 2.3973
- OD490 value, Well 1 (Hela cell line; 25μM, first assay): 2.3040
- OD490 value, Well 2 (Hela cell line; 25μM, first assay): 2.5337
- OD490 value, Well 3 (Hela cell line; 25μM, first assay): 2.3542
- OD490 value, Mean (Hela cell line; 25μM, second assay): 2.3999
- OD490 value, Well 1 (Hela cell line; 25μM, second assay): 2.5301
- OD490 value, Well 2 (Hela cell line; 25μM, second assay): 2.4698
- OD490 value, Well 3 (Hela cell line; 25μM, second assay): 2.1998
- OD490 value, Mean (Hela cell line; 25μM, third assay): 2.4241
- OD490 value, Well 1 (Hela cell line; 25μM, third assay): 2.5355
- OD490 value, Well 2 (Hela cell line; 25μM, third assay): 2.5124
- OD490 value, Well 3 (Hela cell line; 25μM, third assay): 2.2245
- OD490 value, Mean (Hela cell line; 50μM, first assay): 2.2890
- OD490 value, Well 1 (Hela cell line; 50μM, first assay): 2.3872
- OD490 value, Well 2 (Hela cell line; 50μM, first assay): 2.2920
- OD490 value, Well 3 (Hela cell line; 50μM, first assay): 2.1878
- OD490 value, Mean (Hela cell line; 50μM, second assay): 2.2189
- OD490 value, Well 1 (Hela cell line; 50μM, second assay): 2.3332
- OD490 value, Well 2 (Hela cell line; 50μM, second assay): 2.3089
- OD490 value, Well 3 (Hela cell line; 50μM, second assay): 2.0147
- OD490 value, Mean (Hela cell line; 50μM, third assay): 2.2950
- OD490 value, Well 1 (Hela cell line; 50μM, third assay): 2.4301
- OD490 value, Well 2 (Hela cell line; 50μM, third assay): 2.3354
- OD490 value, Well 3 (Hela cell line; 50μM, third assay): 2.1196
- OD490 value, Mean (Hela cell line; 100μM, first assay): 1.7776
- OD490 value, Well 1 (Hela cell line; 100μM, first assay): 1.7277
- OD490 value, Well 2 (Hela cell line; 100μM, first assay): 1.8895
- OD490 value, Well 3 (Hela cell line; 100μM, first assay): 1.7156
- OD490 value, Mean (Hela cell line; 100μM, second assay): 1.7632
- OD490 value, Well 1 (Hela cell line; 100μM, second assay): 1.6245
- OD490 value, Well 2 (Hela cell line; 100μM, second assay): 1.8996
- OD490 value, Well 3 (Hela cell line; 100μM, second assay): 1.7654
- OD490 value, Mean (Hela cell line; 100μM, third assay): 1.7923
- OD490 value, Well 1 (Hela cell line; 100μM, third assay): 1.6654
- OD490 value, Well 2 (Hela cell line; 100μM, third assay): 1.8247
- OD490 value, Well 3 (Hela cell line; 100μM, third assay): 1.8869
- pIC50 (Hela cell line; MTS assay, 24 h exposure): 3.94
